This passage reports IC50 results from patent US8309551B2, “Pyrazolopyridine, indazole, imidazopyridine, imidazopyrimidine, pyrazolopyrazine and pyrazolopyridine derivatives as stimulators of guanylate cyclase for cardiovascular disorders” (Bayer Intellectual Property GmbH, priority 2006, dated 2012).

Read-outs that look alike come from different tables or passages of the source.

This test concerns aorta rings. Description: Vasorelaxant effect in vitro (phenylephrine-contracted rabbit aorta rings). As to conditions: Oryctolagus cuniculus, read-out: IC50 (concentration necessary to reduce the level of contraction by 50%). The procedure: B-1. Vasorelaxant Effect in Vitro
Rabbits are stunned by a blow to the back of the neck and are exsanguinated. The aorta is removed, freed of adherent tissue, divided into rings 1.5 mm wide and placed singly in 5 ml organ baths with carbogen-gassed Krebs-Henseleit solution of the following composition (in each case mM): NaCl: 119; KCl: 4.8; CaCl2×2 H2O: 1; MgSO4×7 H2O: 1.4; KH2PO4: 1.2; NaHCO3: 25; glucose: 10, under an initial tension at 37° C. The force of contraction is detected with Statham UC2 cells, amplified and digitized via A/D converters (DAS-1802 HC, Keithley Instruments Munich), and recorded in parallel on chart recorders. A contraction is induced by adding phenylephrine to the bath cumulatively in increasing concentration. After several control cycles, the substance to be investigated is added in each further run in increasing dosage each time, and the level of contraction is compared with the level of contraction achieved in the last preceding run. The concentration necessary to reduce the level of contraction by 50% (IC50) is calculated therefrom. The standard application volume is 5 μl, and the DMSO content in the bath solution corresponds to 0.1%.

The mark [1] stands for this setting: rabbit aorta rings, contraction induced by phenylephrine, 37° C., 0.1% DMSO.

As to `Nc1nc(N)nc(-n2nc(Cc3ccccc3F)c3ncccc32)n1` [Example 1, 6-[3-(2-Fluorobenzyl)-1H-pyrazolo[4,3-b]pyridin-1-yl]-1,3,5-triazine-2,4-diamine], the IC50 under setting [1] was determined as 240 nM.
With `Nc1nc(N)nc(-n2nc(Cc3ccccc3F)c3ccccc32)n1` [Example 2, 6-[3-(2-Fluorobenzyl)-1H-indazol-1-yl]-1,3,5-triazine-2,4-diamine], under setting [1], the IC50 was 300 nM.
On to `Nc1nc(N)nc(-c2nc(Cc3ccccc3F)n3ccccc23)n1` [Example 3, 6-[3-(2-Fluorobenzyl)imidazo[1,5-a]pyridin-1-yl]-1,3,5-triazine-2,4-diamine], for which the IC50 under setting [1] worked out at 2900 nM.
For `Nc1nc(N)nc(-c2nc(Cc3ccccc3F)c3ncccn23)n1` [Example 4, 6-[8-(2-Fluorobenzyl)imidazo[1,5-a]pyrimidin-6-yl]-1,3,5-triazine-2,4-diamine], the IC50 stood at 215 nM.
On to `Nc1cc(N)nc(-c2nc(Cc3ccccc3F)c3ncccn23)n1` [Example 7, 2-[8-(2-Fluorobenzyl)imidazo[1,5-a]pyrimidin-6-yl]pyrimidine-4,6-diamine], for which the IC50 is 1050 nM.
